Results from patent US10206908B2, “3-(1H-pyrrolo[3,2-C]pyridin-2-YL)-1H-pyrazolo[3,4-C]pyridines and therapeutic uses thereof” (Samumed, LLC, priority 2015, dated 2019).

Experiments:
Type in all cases: cell-based
[1] = test system: primary human fibroblasts derived from IPF patients (LL29 cells) treated with TGF-β1; assay: Inhibition of the fibrotic process: αSMA staining in TGF-β1 treated LL29 fibroblasts; details: Fibroblast; for EC50: 96 h, % αSMA positive LL29 cells, TGF-β1 20 ng/mL, 4 days; for inhibition at 10 µM: read-out: percent inhibition at 10 μM
Procedure: Representative compounds were screened using primary human fibroblasts (derived from IPF patients) treated with TGF-β1 to determine their ability to inhibit the fibrotic process.
LL29 cells are plated at 1,500 cells/well in 80 μL/well F12 medium supplemented with 1% Fetal Bovine Serum. […] Wells treated with TGF-β1 and containing DMSO were used as controls. […] Following incubation for 4 days, SYTOX green nucleic acid stain (Life Technologies [Thermo Fisher Scientific]) was added to the wells at a final concentration of 1 μM and incubated at room temperature for 30 min.

[2] = test system: Wnt activity (Sp5-Luc reporter, SW480 colon carcinoma cells); assay: Screening assay for Wnt activity: Sp5-Luc reporter gene assay in SW480 colon carcinoma cells; details: Homo sapiens; for EC50: Sp5-Luc reporter, SW480 cells, overnight incubation; for inhibition at 10 µM: SW480, read-out: percent inhibition at 10 μM
Description: The screening assay for Wnt activity is described as follows. Reporter cell lines can be generated by stably transducing cancer cell lines (e.g., colon cancer) or primary cells (e.g., IEC-6 intestinal cells) with a lentiviral construct that includes a Wnt-responsive promoter driving expression of the firefly luciferase gene.
SW480 colon carcinoma cells were transduced with a lentiviral vector expressing luciferase with a human Sp5 promoter consisting of a sequence of eight TCF/LEF binding sites. SW480 cells stably expressing the Sp5-Luc reporter gene and a hygromycin resistance gene were selected by treatment with 150 μg/mL of hygromycin for 7 days. These stably transduced SW480 cells were expanded in cell culture and used for all further screening activities. […] For Sp5-Luc reporter gene assays, the cells were plated at 4,000 cells/well in 384-well plates with medium containing 1% fetal bovine serum and incubated overnight at 37° C. and 5% CO2. Following incubation, 20 μl of BrightGlo luminescence reagent (Promega) was added to each well of the 384-well assay plates. The plates were placed on an orbital shaker for 2 min and then luminescence was quantified using the Envision (Perkin Elmer) plate reader. Readings were normalized to DMSO only treated cells, and normalized activities were utilized for EC50 calculations using the dose-response log (inhibitor) vs. response-variable slope (four parameters) nonlinear regression feature available in GraphPad Prism 5.0 (or Dotmatics).

[3] = test system: IL-6 (THP-1 cells); assay: IL-6 inhibition in LPS-stimulated THP-1 monocytes (HTRF); details: Homo sapiens; for EC50: IL-6, THP-1 cells, LPS 500 ng/mL, 22 hours; for inhibition at 10 µM: THP-1, read-out: percent inhibition at 10 μM
Procedure: Compound Screening: THP-1 cells were cultured in basal media with 1% FBS for 24 hours before the start of the assay. […] THP-1 cells were plated at 5000 cells/well in the 384-well plates and incubated at 37° C. for 2 h. 500 ng/mL of LPS was added after 2 hours and cells were incubated for another 22 hours at 37° C. Plates were spun in a centrifuge for 1 minute at […] and a mixture of anti-IL6 XL665, and anti-IL6 Cryptate diluted in reconstitution buffer (Cisbio Inc.) was added to each well. Following incubation for 3 hrs at room temperature, Homogeneous Time-Resolved Fluorescence (HTRF) was measured using the Envision (Perkin Elmer) at 665 nm and […]. The ratio of fluorescence at 665 nm to 620 nm was used as a readout for IL6 quantification. All samples were processed in duplicate. Readings were normalized to DMSO treated cells and normalized activities were utilized for EC50 calculations using the dose-response log (inhibitor) vs. response-variable slope (four parameters) nonlinear regression feature available in GraphPad Prism 5.0 (or Dotmatics).

[4] = test system: SW480 colon cancer cells; assay: Cell viability assay (CellTiter-Blue) in SW480 colon cancer cells; details: Homo sapiens; for EC50: 96 h, SW480 cell viability, four days; for inhibition at 10 µM: SW480, read-out: percent inhibition at 10 μM
Procedure: Representative compounds were screened using the following assay procedure to assess the effect on cell viability as described below.
Approximately 2×10^3 SW480 colon cancer cells were seeded into each well and allowed to incubate in the presence or absence of compound for four days at 37° C./5% CO2. Eight replicates of DMSO-treated cells served as controls and cells treated with compound were performed in duplicate.
After incubation, 20 μL of CellTiter-Blue (Promega) was added to each well allowed to incubate for approximately 3 hours. This reagent was a buffered solution which contains resazurin, metabolically active cells were able to reduce rezarurin (blue) into resorufin (pink) which was highly fluorescent. This measured fluorescence was used as a readout for cell viability.

EC50 [2] [µM] | EC50 [3] [µM] | EC50 [4] [µM] | SMILES | EC50 [1] [µM] | inhibition at 10 µM [1] [%] | inhibition at 10 µM [3] [%] | inhibition at 10 µM [4] [%] | inhibition at 10 µM [2] [%]
2 | 3.25 | 1.85 | O=C(Cc1ccccc1)Nc1cncc(-c2cc3c(-c4cc5c(-c6ccccc6F)nccc5[nH]4)n[nH]c3cn2)c1 [Compound 66, N-(5-(3-(4-(2-Fluorophenyl)-1H-pyrrolo[3,2-c]pyridin-2-yl)-1H-pyrazolo[3,4-c]pyridin-5-yl)pyridin-3-yl)-2-phenylacetamide] | 3.31 | – | – | – | –
2.45 | 3.39 | 4.16 | CC(C)Nc1cncc(-c2cc3c(-c4cc5c(N6CCCCC6)nccc5[nH]4)n[nH]c3cn2)c1 [Compound 180, N-Isopropyl-5-(3-(4-(piperidin-1-yl)-1H-pyrrolo[3,2-c]pyridin-2-yl)-1H-pyrazolo[3,4-c]pyridin-5-yl)pyridin-3-amine] | 2.6 | – | – | – | –
1.25 | 1.78 | 1.5 | CC(C)CC(=O)Nc1cncc(-c2cc3c(-c4cc5c(N6CCCCC6)nccc5[nH]4)n[nH]c3cn2)c1 [Compound 170, 3-Methyl-N-(5-(3-(4-(piperidin-1-yl)-1H-pyrrolo[3,2-c]pyridin-2-yl)-1H-pyrazolo[3,4-c]pyridin-5-yl)pyridin-3-yl)butanamide] | 2.36 | – | – | – | –
4.23 | 9.32 | 6.5 | O=C(Cc1ccccc1)Nc1cncc(-c2cc3c(-c4cc5c(N6CCCCC6)nccc5[nH]4)n[nH]c3cn2)c1 [Compound 178, 2-Phenyl-N-(5-(3-(4-(piperidin-1-yl)-1H-pyrrolo[3,2-c]pyridin-2-yl)-1H-pyrazolo[3,4-c]pyridin-5-yl)pyridin-3-yl)acetamide] | > 10 | 0 | – | – | –
0.632 | > 10 | > 10 | c1cncc(-c2cc3c(-c4cc5c(N6CCCCC6)nccc5[nH]4)n[nH]c3cn2)c1 [Compound 172, 3-(4-(Piperidin-1-yl)-1H-pyrrolo[3,2-c]pyridin-2-yl)-5-(pyridin-3-yl)-1H-pyrazolo[3,4-c]pyridine] | > 10 | 0 | 0 | 10.8 | –
1.23 | 2.03 | 1.44 | O=C(Nc1cncc(-c2cc3c(-c4cc5c(-c6cccc(F)c6)nccc5[nH]4)n[nH]c3cn2)c1)C1CCCCC1 [Compound 23, N-(5-(3-(4-(3-Fluorophenyl)-1H-pyrrolo[3,2-c]pyridin-2-yl)-1H-pyrazolo[3,4-c]pyridin-5-yl)pyridin-3-yl)cyclohexanecarboxamide] | 0.678 | – | – | – | –
3.82 | > 10 | > 10 | O=C(Nc1cncc(-c2cc3c(-c4cc5c(-c6cccc(F)c6)nccc5[nH]4)n[nH]c3cn2)c1)c1ccccc1 [Compound 11, N-(5-(3-(4-(3-Fluorophenyl)-1H-pyrrolo[3,2-c]pyridin-2-yl)-1H-pyrazolo[3,4-c]pyridin-5-yl)pyridin-3-yl)benzamide] | > 10 | 0 | 26.9 | 34.7 | –
> 10 | 3.86 | > 10 | CS(=O)(=O)NCc1cc(F)cc(-c2nccc3[nH]c(-c4n[nH]c5cnc(-c6cncc(CN7CCCC7)c6)cc45)cc23)c1 [Compound 490, N-(3-Fluoro-5-(2-(5-(5-(pyrrolidin-1-ylmethyl)pyridin-3-yl)-1H-pyrazolo[3,4-c]pyridin-3-yl)-1H-pyrrolo[3,2-c]pyridin-4-yl)benzyl)methanesulfonamide] | > 10 | 0 | – | 5.5 | 28.7
1.18 | 0.94 | 1.72 | CC(C)(C)C(=O)Nc1cncc(-c2cc3c(-c4cc5c(-c6cccc(F)c6)nccc5[nH]4)n[nH]c3cn2)c1 [Compound 8, N-(5-(3-(4-(3-Fluorophenyl)-1H-pyrrolo[3,2-c]pyridin-2-yl)-1H-pyrazolo[3,4-c]pyridin-5-yl)pyridin-3-yl)pivalamide] | 0.627 | – | – | – | –
0.343 | 0.38 | 0.773 | CC(C)Nc1cncc(-c2cc3c(-c4cc5c(-c6ccc(F)cc6)nccc5[nH]4)n[nH]c3cn2)c1 [Compound 40, 5-(3-(4-(4-Fluorophenyl)-1H-pyrrolo[3,2-c]pyridin-2-yl)-1H-pyrazolo[3,4-c]pyridin-5-yl)-N-isopropylpyridin-3-amine] | 0.056 | – | – | – | –
4.04 | 3.3 | 4.14 | c1ccc(-c2cc3c(-c4cc5c(-c6cccs6)nccc5[nH]4)n[nH]c3cn2)nc1 [Compound 364, 5-(Pyridin-2-yl)-3-(4-(thiophen-2-yl)-1H-pyrrolo[3,2-c]pyridin-2-yl)-1H-pyrazolo[3,4-c]pyridine] | 3.12 | – | – | – | –
1.1 | 2.38 | > 10 | CCCC(=O)Nc1cncc(-c2cc3c(-c4cc5c(-c6ccoc6)nccc5[nH]4)n[nH]c3cn2)c1 [Compound 325, N-(5-(3-(4-(Furan-3-yl)-1H-pyrrolo[3,2-c]pyridin-2-yl)-1H-pyrazolo[3,4-c]pyridin-5-yl)pyridin-3-yl)butyramide] | 1.74 | – | – | 31.2 | –
> 10 | > 10 | > 10 | CN1CCN(c2nccc3[nH]c(-c4n[nH]c5cnc(-c6cncnc6)cc45)cc23)CC1 [Compound 251, 3-(4-(4-Methylpiperazin-1-yl)-1H-pyrrolo[3,2-c]pyridin-2-yl)-5-(pyrimidin-5-yl)-1H-pyrazolo[3,4-c]pyridine] | > 10 | 17.6 | 12.1 | 0 | 41.7
> 10 | > 10 | > 10 | Fc1cccc(-c2nccc3[nH]c(-c4n[nH]c5cnc(C6CCNCC6)cc45)cc23)c1 [Compound 505, 3-(4-(3-Fluorophenyl)-1H-pyrrolo[3,2-c]pyridin-2-yl)-5-(piperidin-4-yl)-1H-pyrazolo[3,4-c]pyridine] | > 10 | 0 | 16.4 | 5.2 | 28.3
> 10 | > 10 | > 10 | CC(C)CC(=O)Nc1cncc(-c2cc3c(-c4cc5c(-c6cccnc6)nccc5[nH]4)n[nH]c3cn2)c1 [Compound 86, 3-Methyl-N-(5-(3-(4-(pyridin-3-yl)-1H-pyrrolo[3,2-c]pyridin-2-yl)-1H-pyrazolo[3,4-c]pyridin-5-yl)pyridin-3-yl)butanamide] | 1.92 | – | 0 | 3.6 | 29.9
> 10 | > 10 | > 10 | CN1CCN(c2nccc3[nH]c(-c4n[nH]c5cnc(-c6cncc(NC(=O)CC7CCNCC7)c6)cc45)cc23)CC1 [Compound 641, N-(5-(3-(4-(4-Methylpiperazin-1-yl)-1H-pyrrolo[3,2-c]pyridin-2-yl)-1H-pyrazolo[3,4-c]pyridin-5-yl)pyridin-3-yl)-2-(piperidin-4-yl)acetamide] | 5.12 | – | 14.4 | 4.4 | 7.9
